The structures appear in SMILES notation.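 All cell lines were grown in 96-well plates and treated with compound for 48 hours. At the GI50, growth is halved. TGI denotes the concentration required for complete inhibition of growth.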

These results are taken from PubChem BioAssay (NCI).

Test systems include NCI-H460 lung; LOX IMVI melanoma; ACHN renal; SF-268 CNS; NCI-H23 lung; SF-539 CNS; NCI/ADR-RES ovarian; CCRF-CEM leukemia; SK-MEL-28 melanoma; SW-620 colon.
What all share (assay): DTP human tumour cell line panel, 48 h

One may read the GI50 as the concentration at which growth is held to half of that of the control. Broadly, the TGI is the concentration at which net growth stops. Higher therefore signals less potent growth arrest. On to `CN1CCN(Cc2ccc(NC(=O)c3cncc(C#Cc4c(N)ncc5ccc(C#N)cc45)c3)cc2C(F)(F)F)CC1`, for which the GI50 is 0.878 µM in the assay on NCI-H460 lung; 0.29 µM with LOX IMVI melanoma; 0.717 µM in the assay on ACHN renal; 0.91 µM in the assay with SF-268 CNS; 1.02 µM with NCI-H23 lung; 0.76 µM in the assay on SF-539 CNS. Moreover, the GI50 in the assay on NCI/ADR-RES ovarian is 1.11 µM; in the assay with CCRF-CEM leukemia, 1.04 µM; with SK-MEL-28 melanoma, 0.35 µM; with SW-620 colon, 0.696 µM. The TGI came to 1.77 µM in the assay with NCI-H460 lung; 1.07 µM in the assay on LOX IMVI melanoma; 1.39 µM in the assay with ACHN renal; 1.89 µM in the assay on SF-268 CNS; 3.6 µM in the assay on NCI-H23 lung; 3.07 µM in the assay with SF-539 CNS. Besides, the TGI was 2.63 µM with NCI/ADR-RES ovarian, 3.08 µM in the assay on CCRF-CEM leukemia, 1.1 µM with SK-MEL-28 melanoma and 1.53 µM in the assay with SW-620 colon.

As for `COc1cc2c3c(n(CCCN4CCNCC4)c(=O)c2cc1OC)-c1cc2c(cc1C3=O)OCO2`, the GI50 is 0.00951 µM in the assay with NCI-H460 lung; 0.0732 µM in the assay on LOX IMVI melanoma; 0.0394 µM in the assay with ACHN renal; 0.795 µM in the assay on SF-268 CNS; 0.104 µM in the assay on NCI-H23 lung; 0.0399 µM in the assay on SF-539 CNS. For the same compound, the GI50 in the assay with NCI/ADR-RES ovarian was 2.77 µM; in the assay with CCRF-CEM leukemia it was 0.0118 µM; in the assay with SK-MEL-28 melanoma, 4.11 µM; in the assay on SW-620 colon, 0.0613 µM. Besides, the TGI in the assay on NCI-H460 lung is 2.07 µM; in the assay with LOX IMVI melanoma, 0.757 µM; in the assay on ACHN renal, 0.283 µM; in the assay with SF-268 CNS, 8.49 µM; with NCI-H23 lung it was 1.47 µM; in the assay with SF-539 CNS, 0.355 µM. For the same compound, the TGI in the assay with NCI/ADR-RES ovarian stood at 11.5 µM; with CCRF-CEM leukemia, 0.389 µM; with SK-MEL-28 melanoma, 19.6 µM; in the assay with SW-620 colon, 6.32 µM.

In the case of `O=C(O)CCCCn1ccc(=O)[nH]c1=O`, the TGI with NCI-H460 lung, with LOX IMVI melanoma, with ACHN renal, with SF-268 CNS, in the assay with NCI-H23 lung and in the assay with SF-539 CNS was above 100 µM throughout. In addition, the TGI in the assay on NCI/ADR-RES ovarian, in the assay with CCRF-CEM leukemia, with SK-MEL-28 melanoma and in the assay with SW-620 colon was above 100 µM in each case.

With `Cc1ccc([P+](Cc2ccccc2)(c2ccccc2)c2ccccc2)cc1`, the GI50 in the assay with NCI-H460 lung is 2.33 µM; with LOX IMVI melanoma it was 2.48 µM; with ACHN renal it was 3.95 µM; in the assay on SF-268 CNS, 3.66 µM; in the assay on SF-539 CNS it was 3.03 µM; in the assay on NCI/ADR-RES ovarian it was 47.8 µM. For the same compound, the GI50 in the assay with CCRF-CEM leukemia was 2.5 µM; with SK-MEL-28 melanoma it was 3.13 µM; in the assay on SW-620 colon, 2.66 µM. For the same compound, the TGI is 10.5 µM with NCI-H460 lung; 14.3 µM in the assay with LOX IMVI melanoma; above 100 µM in the assay with ACHN renal; above 100 µM with SF-268 CNS; 50.9 µM with SF-539 CNS; above 100 µM in the assay on NCI/ADR-RES ovarian. Also, the results for the TGI in the assay with CCRF-CEM leukemia, with SK-MEL-28 melanoma and with SW-620 colon were 18.9 µM, 25.8 µM and 49.6 µM, respectively.

Regarding `COC(=O)Oc1nn(C(=O)OC)c(=O)c2ccccc12`, the TGI in the assay on LOX IMVI melanoma, in the assay with ACHN renal, in the assay on SF-268 CNS, in the assay on NCI-H23 lung, in the assay with SF-539 CNS and with NCI/ADR-RES ovarian was above 100 µM throughout. Besides, the TGI with CCRF-CEM leukemia, in the assay with SK-MEL-28 melanoma and in the assay with SW-620 colon was above 100 µM each time.

As to `CC1(C)CC(=O)C=C(/C=C/Sc2c(Cl)c(Cl)nc(Cl)c2Cl)C1`, the GI50 in the assay with NCI-H460 lung is 11.8 µM; in the assay with LOX IMVI melanoma it was 3.26 µM; in the assay on ACHN renal, 11.1 µM; with SF-268 CNS it was 13 µM; in the assay with NCI-H23 lung, 6.34 µM; in the assay on SF-539 CNS, 11.8 µM. Moreover, the GI50 with NCI/ADR-RES ovarian was 11.3 µM; in the assay on SK-MEL-28 melanoma, 15.5 µM; with SW-620 colon, 11.8 µM. Also, the total growth inhibition concentration (TGI) in the assay with NCI-H460 lung was found to be 32.1 µM; in the assay on LOX IMVI melanoma, 12.9 µM; with ACHN renal it was 23.3 µM; in the assay with SF-268 CNS, 32.4 µM; in the assay on NCI-H23 lung it was 19.3 µM; with SF-539 CNS it was 26.4 µM. Also, the TGI with NCI/ADR-RES ovarian worked out at 25.6 µM; in the assay on SK-MEL-28 melanoma, 31.9 µM; with SW-620 colon it was 32.7 µM.

Turning to `Cc1ccc([Se](=C(C(=O)c2ccccc2)C(=O)c2ccccc2)c2ccc(C)cc2)cc1`, the TGI in the assay on NCI-H460 lung was above 100 µM; in the assay on ACHN renal it was 77.8 µM; in the assay on SF-268 CNS it was above 100 µM; with NCI-H23 lung, 59.2 µM; in the assay on SF-539 CNS, 66 µM; with NCI/ADR-RES ovarian it was above 100 µM. Also, the TGI with SK-MEL-28 melanoma and in the assay with SW-620 colon was above 100 µM each time.

Consider `COC(=O)c1cc(NC(=O)c2cc(NC(=O)c3cc([N+](=O)[O-])n(C)c3)cn2C)cn1C`, for which the GI50 is above 100 µM in the assay on NCI-H460 lung; 10.7 µM with LOX IMVI melanoma; 2.53 µM in the assay with ACHN renal; above 100 µM in the assay with SF-268 CNS; 24.5 µM in the assay on NCI-H23 lung; 56.1 µM with SF-539 CNS. The GI50 is above 100 µM with NCI/ADR-RES ovarian, 54 µM with CCRF-CEM leukemia and above 100 µM with SW-620 colon. The TGI in the assay with NCI-H460 lung was above 100 µM; in the assay with LOX IMVI melanoma, 85.9 µM; with ACHN renal, 53.5 µM; with SF-268 CNS, above 100 µM; in the assay on NCI-H23 lung it was above 100 µM; in the assay with SF-539 CNS it was above 100 µM. Besides, the TGI with NCI/ADR-RES ovarian, in the assay on CCRF-CEM leukemia and in the assay with SW-620 colon was above 100 µM in each case.

As for `COC(=O)C12CCC(C)(C)CC1C1=CCC3C4(C)CC(O)C(O)C(C)(C(=O)OC)C4CCC3(C)C1(CO)CC2` (stereo not drawn), the TGI in the assay with NCI-H460 lung is 31.5 µM; in the assay with LOX IMVI melanoma, 28.1 µM; in the assay with ACHN renal, 27.2 µM; in the assay on SF-268 CNS, 44.9 µM; with NCI-H23 lung, 32.2 µM; in the assay with SF-539 CNS it was 31.6 µM. In addition, the TGI stood at 29.2 µM in the assay with NCI/ADR-RES ovarian, 80.2 µM in the assay on CCRF-CEM leukemia and 27.5 µM with SW-620 colon.

For the compound `O=[N+]([O-])c1ccc(/C=C/c2nc3ccc(Cl)cc3[nH]2)cc1`, the GI50 is 17.8 µM in the assay on NCI-H460 lung; 27.2 µM in the assay with LOX IMVI melanoma; 17.8 µM with ACHN renal; above 100 µM in the assay with SF-268 CNS; 54.5 µM in the assay with NCI-H23 lung; 15.9 µM with SF-539 CNS. The GI50 is 15 µM in the assay on NCI/ADR-RES ovarian, above 100 µM in the assay with SK-MEL-28 melanoma and 28.7 µM with SW-620 colon. Also, the TGI is 84.9 µM with NCI-H460 lung; above 100 µM in the assay on LOX IMVI melanoma; 50.9 µM in the assay on ACHN renal; above 100 µM in the assay on SF-268 CNS; above 100 µM in the assay on NCI-H23 lung; 39.4 µM in the assay on SF-539 CNS. Moreover, the TGI with NCI/ADR-RES ovarian, in the assay on SK-MEL-28 melanoma and in the assay on SW-620 colon was above 100 µM throughout.
